# Patent US20220081444A1, “6,7-DIHYDRO-4H-PYRAZOLO[1,5-A]PYRAZINE INDOLE-2-CARBOXAMIDES ACTIVE AGAINST THE HEPATITIS B VIRUS (HBV)” (AiCuris GmbH & Co. KG, priority 2018, published 2022)
# Tested on: HBV
# Details: Hepatitis B virus, HePAD38, 144 h, read-out: Cell Activity (EC50)
row,Compound,EC50
1,"CC(=O)N1CCC(C(=O)Nc2cc3n(n2)CCN(C(=O)c2cc4ccccc4[nH]2)C3)CC1 [Example 42, 1-acetyl-N-[5-(1H-indole-2-carbonyl)-4H,5H,6H,7H-pyrazolo[1,5-a]pyrazin-2-yl]piperidine-4-carboxamide]",< 1000 nM
2,"O=C(c1cc2ccccc2[nH]1)N1CCn2nc(NS(=O)(=O)Cc3ccccc3)cc2C1 [Example 43, N-[5-(1H-indole-2-carbonyl)-4H,5H,6H,7H-pyrazolo[1,5-a]pyrazin-2-yl]-1-phenylmethanesulfonamide]",< 1000 nM
3,"CCS(=O)(=O)Nc1cc2n(n1)CCN(C(=O)c1cc3ccccc3[nH]1)C2 [Example 45, N-[5-(1H-indole-2-carbonyl)-4H,5H,6H,7H-pyrazolo[1,5-a]pyrazin-2-yl]ethane-1-sulfonamide]",< 1000 nM
4,"Cc1noc(C)c1S(=O)(=O)Nc1cc2n(n1)CCN(C(=O)c1cc3ccccc3[nH]1)C2 [Example 46, N-[5-(1H-indole-2-carbonyl)-4H,5H,6H,7H-pyrazolo[1,5-a]pyrazin-2-yl]-3,5-dimethyl-1,2-oxazole-4-sulfonamide]",< 1000 nM
5,"CC(C)S(=O)(=O)Nc1cc2n(n1)CCN(C(=O)c1cc3ccccc3[nH]1)C2 [Example 47, N-[5-(1H-indole-2-carbonyl)-4H,5H,6H,7H-pyrazolo[1,5-a]pyrazin-2-yl]propane-2-sulfonamide]",< 1000 nM
6,"Cc1nc(S(=O)(=O)Nc2cc3n(n2)CCN(C(=O)c2cc4ccccc4[nH]2)C3)cn1C [Example 48, [5-(1H-indole-2-carbonyl)-4H,5H,6H,7H-pyrazolo[1,5-a]pyrazin-2-yl]-1,2-dimethyl-1H-imidazole-4-sulfonamide]",1000 to 10000 nM
7,"Cn1cc(S(=O)(=O)Nc2cc3n(n2)CCN(C(=O)c2cc4ccccc4[nH]2)C3)cn1 [Example 49, N-[5-(1H-indole-2-carbonyl)-4H,5H,6H,7H-pyrazolo[1,5-a]pyrazin-2-yl]-1-methyl-1H-pyrazole-4-sulfonamide]",< 1000 nM
8,"O=C(c1cc2ccccc2[nH]1)N1CCn2nc(NS(=O)(=O)c3cccnc3)cc2C1 [Example 50, N-[5-(1H-indole-2-carbonyl)-4H,5H,6H,7H-pyrazolo[1,5-a]pyrazin-2-yl]pyridine-3-sulfonamide]",< 1000 nM
9,"O=C(c1cc2ccccc2[nH]1)N1CCn2nc(NS(=O)(=O)C3CCCCC3)cc2C1 [Example 51, N-[5-(1H-indole-2-carbonyl)-4H,5H,6H,7H-pyrazolo[1,5-a]pyrazin-2-yl]cyclohexanesulfonamide]",< 1000 nM
10,"COCC1(S(=O)(=O)Nc2cc3n(n2)CCN(C(=O)c2cc4ccccc4[nH]2)C3)CC1 [Example 52, N-[5-(1H-indole-2-carbonyl)-4H,5H,6H,7H-pyrazolo[1,5-a]pyrazin-2-yl]-1-(methoxymethyl)cyclopropane-1-sulfonamide]",< 1000 nM
11,"O=C(c1cc2ccccc2[nH]1)N1CCn2nc(NS(=O)(=O)C3CCOCC3)cc2C1 [Example 53, N-[5-(1H-indole-2-carbonyl)-4H,5H,6H,7H-pyrazolo[1,5-a]pyrazin-2-yl]oxane-4-sulfonamide]",< 1000 nM
12,"COCC1(CNc2cc3n(n2)CCN(C(=O)c2cc4ccccc4[nH]2)C3)CC1 [Example 54, 5-(1H-indole-2-carbonyl)-N-{[1-(methoxymethyl)cyclopropyl]methyl}-4H,5H,6H,7H-pyrazolo[1,5-a]pyrazin-2-amine]",< 1000 nM
13,"O=C(c1cc2ccccc2[nH]1)N1CCn2nc(NCC3CCCOC3)cc2C1 (centres unmarked) [Example 55, 5-(1H-indole-2-carbonyl)-N-[(oxan-3-yl)methyl]-4H,5H,6H,7H-pyrazolo[1,5-a]pyrazin-2-amine]",< 1000 nM
14,"O=C(c1cc2ccccc2[nH]1)N1CCn2nc(NCc3ccccc3)cc2C1 [Example 56, N-benzyl-5-(1H-indole-2-carbonyl)-4H,5H,6H,7H-pyrazolo[1,5-a]pyrazin-2-amine]",1000 to 10000 nM
15,"O=C(Nc1cc2n(n1)CCN(C(=O)c1cc3ccccc3[nH]1)C2)C1CCN(c2ccncc2)CC1 [Example 57, N-[5-(1H-indole-2-carbonyl)-4H,5H,6H,7H-pyrazolo[1,5-a]pyrazin-2-yl]-1-(pyridin-4-yl)piperidine-4-carboxamide]",< 1000 nM
16,"COC(=O)N1CCC(C(=O)Nc2cc3n(n2)CCN(C(=O)c2cc4ccccc4[nH]2)C3)CC1 [Example 58, Methyl 4-{[5-(1H-indole-2-carbonyl)-4H,5H,6H,7H-pyrazolo[1,5-a]pyrazin-2-yl]carbamoyl}piperidine-1-carboxylate]",< 1000 nM
17,"CC(C)(CO)CNc1cc2n(n1)CCN(C(=O)c1cc3ccccc3[nH]1)C2 [Example 59, 3-{[5-(1H-indole-2-carbonyl)-4H,5H,6H,7H-pyrazolo[1,5-a]pyrazin-2-yl]amino}-2,2-dimethylpropan-1-ol]",< 1000 nM
18,"COC1(CNc2cc3n(n2)CCN(C(=O)c2cc4ccccc4[nH]2)C3)CCC1 [Example 60, 5-(1H-indole-2-carbonyl)-N-[(1-methoxycyclobutyl)methyl]-4H,5H,6H,7H-pyrazolo[1,5-a]pyrazin-2-amine]",< 1000 nM
19,"O=C(Nc1cc2n(n1)CCN(C(=O)c1cc3ccccc3[nH]1)C2)C1CCNC(C(F)(F)F)C1 (centres unmarked) [Example 61, N-[5-(1H-indole-2-carbonyl)-4H,5H,6H,7H-pyrazolo[1,5-a]pyrazin-2-yl]-2-(trifluoromethyl)piperidine-4-carboxamide]",< 1000 nM
20,"O=C(Nc1cc2n(n1)CCN(C(=O)c1cc3ccccc3[nH]1)C2)C1CCN(CCO)CC1 [Example 62, 1-(2-hydroxyethyl)-N-[5-(1H-indole-2-carbonyl)-4H,5H,6H,7H-pyrazolo[1,5-a]pyrazin-2-yl]piperidine-4-carboxamide]",1000 to 10000 nM
21,"O=C(Nc1cc2n(n1)CCN(C(=O)c1cc3ccccc3[nH]1)C2)C1CCN(CC(F)(F)F)CC1 [Example 63, N-[5-(1H-indole-2-carbonyl)-4H,5H,6H,7H-pyrazolo[1,5-a]pyrazin-2-yl]-1-(2,2,2-trifluoroethyl)piperidine-4-carboxamide]",< 1000 nM
22,"CS(=O)(=O)N1CCC(C(=O)Nc2cc3n(n2)CCN(C(=O)c2cc4ccccc4[nH]2)C3)CC1 [Example 64, N-[5-(1H-indole-2-carbonyl)-4H,5H,6H,7H-pyrazolo[1,5-a]pyrazin-2-yl]-1-methanesulfonylpiperidine-4-carboxamide]",< 1000 nM
23,"NC(=O)N1CCC(C(=O)Nc2cc3n(n2)CCN(C(=O)c2cc4ccccc4[nH]2)C3)CC1 [Example 65, N4-[5-(1H-indole-2-carbonyl)-4H,5H,6H,7H-pyrazolo[1,5-a]pyrazin-2-yl]piperidine-1,4-dicarboxamide]",< 1000 nM
24,"CC(=O)N1CC(C(=O)Nc2cc3n(n2)CCN(C(=O)c2cc4ccccc4[nH]2)C3)C1 [Example 66, 1-acetyl-N-[5-(1H-indole-2-carbonyl)-4H,5H,6H,7H-pyrazolo[1,5-a]pyrazin-2-yl]azetidine-3-carboxamide]",< 1000 nM
25,"CNC(=O)Nc1cc2n(n1)CCN(C(=O)c1cc3ccccc3[nH]1)C2 [Example 67, 1-[5-(1H-indole-2-carbonyl)-4H,5H,6H,7H-pyrazolo[1,5-a]pyrazin-2-yl]-3-methylurea]",< 1000 nM
26,"O=C(Nc1cc2n(n1)CCN(C(=O)c1cc3ccccc3[nH]1)C2)C1CCn2ccnc2C1 (centres unmarked) [Example 68, N-[5-(1H-indole-2-carbonyl)-4H,5H,6H,7H-pyrazolo[1,5-a]pyrazin-2-yl]-5H,6H,7H,8H-imidazo[1,2-a]pyridine-7-carboxamide]",< 1000 nM
